Laboratory results published in the supplement of paper PMC10307832.

What was measured:
Assay in all cases: relative viability (nuclei count vs DMSO), 5 days (fraction); higher = more cells survive
Gemcitabine + Navitoclax = compound: Nc1ccn([C@@H]2O[C@H](CO)[C@@H](O)C2(F)F)c(=O)n1 [Gemcitabine] + CC1(C)CCC(c2ccc(Cl)cc2)=C(CN2CCN(c3ccc(C(=O)NS(=O)(=O)c4ccc(N[C@H](CCN5CCOCC5)CSc5ccccc5)c(S(=O)(=O)C(F)(F)F)c4)cc3)CC2)C1 [Navitoclax] (partner 0.5 µM)
Procedure, shortened: (§1)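 Dosing by pin tool came one day after lung cancer cell lines were seeded in 1536-well plates, using either one drug or a fixed anchor-drug dose plus five library-drug doses (not always all listed) in √10 steps. After 5 days, nuclei were counted on 4× images. Relative viability is treated-well nuclei count divided by vehicle-well nuclei count, and values are medians of duplicate plates.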

Gemcitabine + Luminespib = compound: Nc1ccn([C@@H]2O[C@H](CO)[C@@H](O)C2(F)F)c(=O)n1 [Gemcitabine] + CCNC(=O)c1noc(-c2cc(C(C)C)c(O)cc2O)c1-c1ccc(CN2CCOCC2)cc1 [Luminespib] (partner 0.01 µM)
Procedure, shortened: as §1

Gemcitabine + Foretinib = compound: Nc1ccn([C@@H]2O[C@H](CO)[C@@H](O)C2(F)F)c(=O)n1 [Gemcitabine] + COc1cc2c(Oc3ccc(NC(=O)C4(C(=O)Nc5ccc(F)cc5)CC4)cc3F)ccnc2cc1OCCCN1CCOCC1 [Foretinib] (partner 0.25 µM)
Procedure, shortened: as §1

Gemcitabine + Linsitinib = compound: Nc1ccn([C@@H]2O[C@H](CO)[C@@H](O)C2(F)F)c(=O)n1 [Gemcitabine] + C[C@]1(O)C[C@@H](c2nc(-c3ccc4ccc(-c5ccccc5)nc4c3)c3c(N)nccn32)C1 [Linsitinib] (partner 1 µM)
Procedure, shortened: as §1

Cell Line | relative viability (Gemcitabine + Navitoclax; first compound 0.001 µM) | relative viability (Gemcitabine + Navitoclax; first compound 0.003162 µM) | relative viability (Gemcitabine + Navitoclax; first compound 0.01 µM) | relative viability (Gemcitabine + Navitoclax; first compound 0.03162 µM) | relative viability (Gemcitabine + Navitoclax; first compound 0.1 µM) | relative viability (Gemcitabine + Luminespib; first compound 0.001 µM) | relative viability (Gemcitabine + Luminespib; first compound 0.003162 µM) | relative viability (Gemcitabine + Luminespib; first compound 0.01 µM) | relative viability (Gemcitabine + Luminespib; first compound 0.03162 µM) | relative viability (Gemcitabine + Luminespib; first compound 0.1 µM) | relative viability (Gemcitabine + Foretinib; first compound 0.001 µM) | relative viability (Gemcitabine + Foretinib; first compound 0.003162 µM) | relative viability (Gemcitabine + Foretinib; first compound 0.01 µM) | relative viability (Gemcitabine + Foretinib; first compound 0.03162 µM) | relative viability (Gemcitabine + Foretinib; first compound 0.1 µM) | relative viability (Gemcitabine + Linsitinib; first compound 0.001 µM) | relative viability (Gemcitabine + Linsitinib; first compound 0.003162 µM) | relative viability (Gemcitabine + Linsitinib; first compound 0.01 µM) | relative viability (Gemcitabine + Linsitinib; first compound 0.03162 µM) | relative viability (Gemcitabine + Linsitinib; first compound 0.1 µM)
LOU-NH91 | 0.717 | 0.448 | 0.292 | 0.213 | 0.213 | 0.322 | 0.322 | 0.339 | 0.182 | 0.24 | 0.965 | 0.69 | 0.591 | 0.332 | 0.209 | 0.922 | 0.686 | 0.547 | 0.311 | 0.281
LU99A | 0.875 | 0.976 | 0.667 | 0.871 | 0.474 | 0.238 | 0.306 | 0.233 | 0.232 | 0.266 | 0.856 | 0.791 | 0.858 | 0.819 | 0.812 | 0.601 | 0.597 | 0.487 | 0.576 | 0.554
LXF-289 | 0.934 | 0.925 | 0.655 | 0.084 | 0.0735 | 0.627 | 0.706 | 0.479 | 0.106 | 0.112 | 0.974 | 0.966 | 0.803 | 0.106 | 0.107 | 0.957 | 0.953 | 0.751 | 0.147 | 0.107
NCI-H23 | 0.866 | 0.245 | 0.125 | 0.139 | 0.124 | 0.214 | 0.212 | 0.192 | 0.175 | 0.217 | 0.751 | 0.441 | 0.178 | 0.163 | 0.131 | 0.447 | 0.226 | 0.123 | 0.11 | 0.118
NCI-H322M | 0.96 | 0.52 | 0.286 | 0.207 | 0.228 | 0.73 | 0.445 | 0.334 | 0.36 | 0.344 | 0.985 | 0.383 | 0.289 | 0.272 | 0.29 | 0.777 | 0.474 | 0.3 | 0.274 | 0.267
NCI-H441 | 0.348 | 0.211 | 0.171 | 0.189 | 0.102 | 0.343 | 0.332 | 0.198 | 0.189 | 0.177 | 1.2 | 0.711 | 0.421 | 0.21 | 0.211 | 0.513 | 0.339 | 0.102 | 0.11 | 0.128
NCI-H460 | 1.09 | 1.05 | 0.533 | 0.0127 | 0.0085 | 0.0273 | 0.0507 | 0.0367 | 0.0148 | 0.014 | 0.935 | 1.01 | 0.832 | 0.0311 | 0.0132 | 0.714 | 0.878 | 0.0967 | 0.0138 | 0.0057
NCI-H520 | 1.23 | 1.17 | 0.35 | 0.205 | 0.158 | 0.22 | 0.231 | 0.224 | 0.201 | 0.252 | 0.887 | 0.684 | 0.286 | 0.199 | 0.153 | 1.13 | 0.917 | 0.482 | 0.186 | 0.131
